# From patent publication US6737383B1, “Herbicidal oxadiazolidines” (priority 1999, dated 2004)
# What was measured:
# surinam grass = assay: Test B pre/postemergence surinam grass; type: in vivo, Brachiaria decumbens
# In short: (§1)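 Herbicidal effect was estimated by eye on a ten-point control scale after plants spent twelve to sixteen days in a greenhouse following soil or foliar treatment. Foliar sprays targeted plants at one to four leaves; all doses were formulated in a non-phytotoxic solvent with surfactant.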
# pigweed = assay: Test B pre/postemergence pigweed; type: in vivo, Amaranthus retroflexus
# In short: as §1
# velvetleaf = assay: Test B pre/postemergence velvetleaf; type: in vivo, Abutilon theophrasti
# In short: as §1
# bedstraw = assay: Test B pre/postemergence bedstraw; type: in vivo, Galium aparine
# In short: as §1
# giant foxtail = assay: Test B pre/postemergence giant foxtail; type: in vivo, Setaria faberii
# In short: as §1
# smallflower flatsedge = assay: Test B flood test smallflower flatsedge; type: in vivo, Cyperus difformis; conditions: Pre-emergence
# In short: (§2)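 Flood test on plants grown to the 2-leaf stage; treated plants kept in greenhouse twelve to sixteen days, then visually rated against controls on a 0 (no effect) to 10 (complete control) scale.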
# cocklebur = assay: Test B pre/postemergence cocklebur; type: in vivo, Xanthium strumarium
# In short: as §1
# rice = assay: Test B flood test rice; type: in vivo, Oryza sativa; conditions: Pre-emergence
# In short: as §2
# duck salad = assay: Test B flood test duck salad; type: in vivo, Heteranthera limosa; conditions: Pre-emergence
# In short: as §2
# wild oat = assay: Test B pre/postemergence wild oat; type: in vivo, Avena fatua
# In short: as §1
# sugar beet = assay: Test B pre/postemergence sugar beet; type: in vivo, Beta vulgaris
# In short: as §1
# soybean = assay: Test B pre/postemergence soybean; type: in vivo, Glycine max
# In short: as §1
# purple nutsedge = assay: Test B pre/postemergence purple nutsedge; type: in vivo, Cyperus rotundus
# In short: as §1
# wheat = assay: Test B pre/postemergence wheat; type: in vivo, Triticum aestivum
# In short: as §1
# rape = assay: Test B pre/postemergence rape; type: in vivo, Brassica napus
# In short: as §1
# corn = assay: Test B pre/postemergence corn; type: in vivo, Zea mays
# In short: as §1
# [1] = Postemergence, Rate 1000 g/ha, scale 0 to 10 (0 no effect, 10 complete control)
# [2] = Preemergence, Rate 250 g/ha, scale of 0 to 10 where 0 is no effect and 10 is complete control
# [3] = Preemergence, Rate 500 g/ha, scale of 0 to 10 where 0 is no effect and 10 is complete control
# [4] = Rate 125 g/ha, Postemergence, scale of 0 to 10 where 0 is no effect and 10 is complete control
# [5] = Rate 125 g/ha, Preemergence, scale of 0 to 10 where 0 is no effect and 10 is complete control
# [6] = Rate 250 g/ha, Postemergence, scale of 0 to 10 where 0 is no effect and 10 is complete control
# [7] = Rate 500 g/ha, Postemergence, scale 0 to 10, 0 no effect, 10 complete control
# [8] = Rate 1000 g/ha, Preemergence, scale 0 to 10 (0 no effect, 10 complete control)
# [9] = Rate 1000 g/ha, scale 0 to 10 (0 no effect, 10 complete control)
# [10] = Rate 125 g/ha, flood test species, scale 0 to 10 where 0 is no effect and 10 is complete control
# [11] = Rate 250 g/ha, flood-test species, scale 0 to 10, 0 is no effect, 10 is complete control
# [12] = Rate 500 g/ha, flood test species, scale 0 to 10 (0 no effect, 10 complete control)
compound,measurement,setting,value
C=CCn1c(=O)on(C(=O)N(c2ccc(F)cc2)C(C)C(=O)OCC)c1=O (stereo not drawn) [Compound 279],B. signalgrass plant response rating,surinam grass; [1],0
same,B. signalgrass plant response rating,surinam grass; [2],0
same,"Plant response rating, B. signalgrass",surinam grass; [3],0
same,B. signalgrass plant response rating,surinam grass; [4],0
same,B. signalgrass plant response rating,surinam grass; [5],0
same,"Plant response rating, B. signalgrass",surinam grass; [6],0
same,B. signalgrass plant response rating,surinam grass; [7],0
same,"Plant response rating, B. signalgrass",surinam grass; [8],0
same,Redroot pigweed plant response rating,pigweed; [1],4
same,Redroot pigweed plant response rating,pigweed; [2],0
same,"Plant response rating, Redroot pigweed",pigweed; [3],0
same,Redroot pigweed plant response rating,pigweed; [4],0
same,Redroot pigweed plant response rating,pigweed; [5],0
same,"Plant response rating, Redroot pigweed",pigweed; [6],2
same,Redroot pigweed plant response rating,pigweed; [7],2
same,"Plant response rating, Redroot pigweed",pigweed; [8],0
same,Velvetleaf plant response rating,velvetleaf; [1],0
same,Velvetleaf plant response rating,velvetleaf; [2],0
same,"Plant response rating, Velvetleaf",velvetleaf; [3],0
same,Velvetleaf plant response rating,velvetleaf; [4],0
same,Velvetleaf plant response rating,velvetleaf; [5],0
same,"Plant response rating, Velvetleaf",velvetleaf; [6],0
same,Velvetleaf plant response rating,velvetleaf; [7],0
same,"Plant response rating, Velvetleaf",velvetleaf; [8],0
same,Bedstraw plant response rating,bedstraw; [1],0
same,Bedstraw plant response rating,bedstraw; [2],0
same,"Plant response rating, Bedstraw",bedstraw; [3],0
same,Bedstraw plant response rating,bedstraw; [4],0
same,Bedstraw plant response rating,bedstraw; [5],0
same,"Plant response rating, Bedstraw",bedstraw; [6],0
same,Bedstraw plant response rating,bedstraw; [7],0
same,"Plant response rating, Bedstraw",bedstraw; [8],0
same,Giant foxtail plant response rating,giant foxtail; [1],4
same,Giant foxtail plant response rating,giant foxtail; [2],6
same,"Plant response rating, Giant foxtail",giant foxtail; [3],7
same,Giant foxtail plant response rating,giant foxtail; [4],0
same,Giant foxtail plant response rating,giant foxtail; [5],3
same,"Plant response rating, Giant foxtail",giant foxtail; [6],0
same,Giant foxtail plant response rating,giant foxtail; [7],1
same,"Plant response rating, Giant foxtail",giant foxtail; [8],7
same,S. Flatsedge plant response rating,smallflower flatsedge; [9],0
same,S. Flatsedge plant response rating,smallflower flatsedge; [10],0
same,S. Flatsedge plant response rating,smallflower flatsedge; [11],0
same,S. Flatsedge plant response rating,smallflower flatsedge; [12],0
same,Cocklebur plant response rating,cocklebur; [1],0
same,"Plant response rating, Cocklebur",cocklebur; [3],0
same,Cocklebur plant response rating,cocklebur; [4],0
same,"Plant response rating, Cocklebur",cocklebur; [6],0
same,Cocklebur plant response rating,cocklebur; [7],0
same,"Plant response rating, Cocklebur",cocklebur; [8],0
same,Rice plant response rating,rice; [9],0
same,Rice plant response rating,rice; [10],0
same,Rice plant response rating,rice; [11],0
same,Rice plant response rating,rice; [12],0
same,Ducksalad plant response rating,duck salad; [9],0
same,Ducksalad plant response rating,duck salad; [10],0
same,Ducksalad plant response rating,duck salad; [11],0
same,Ducksalad plant response rating,duck salad; [12],0
same,Wild oats plant response rating,wild oat; [1],0
same,Wild oats plant response rating,wild oat; [2],0
same,"Plant response rating, Wild oats",wild oat; [3],0
same,Wild oats plant response rating,wild oat; [4],0
same,"Plant response rating, Wild oats",wild oat; [6],0
same,Wild oats plant response rating,wild oat; [7],0
same,"Plant response rating, Wild oats",wild oat; [8],0
same,Sugarbeets plant response rating,sugar beet; [1],4
same,Sugarbeets plant response rating,sugar beet; [2],0
same,"Plant response rating, Sugarbeets",sugar beet; [3],0
same,Sugarbeets plant response rating,sugar beet; [4],0
same,Sugarbeets plant response rating,sugar beet; [5],0
same,"Plant response rating, Sugarbeets",sugar beet; [6],0
same,Sugarbeets plant response rating,sugar beet; [7],0
same,"Plant response rating, Sugarbeets",sugar beet; [8],0
same,Soybean plant response rating,soybean; [1],4
same,Soybean plant response rating,soybean; [2],0
same,"Plant response rating, Soybean",soybean; [3],0
same,Soybean plant response rating,soybean; [4],0
same,Soybean plant response rating,soybean; [5],0
same,"Plant response rating, Soybean",soybean; [6],2
same,Soybean plant response rating,soybean; [7],4
same,"Plant response rating, Soybean",soybean; [8],0
same,Nutsedge plant response rating,purple nutsedge; [1],0
same,Nutsedge plant response rating,purple nutsedge; [2],0
same,Nutsedge plant response rating,purple nutsedge; [4],0
same,"Plant response rating, Nutsedge",purple nutsedge; [6],0
same,Nutsedge plant response rating,purple nutsedge; [7],0
same,"Plant response rating, Nutsedge",purple nutsedge; [8],0
same,Wheat plant response rating,wheat; [1],1
same,Wheat plant response rating,wheat; [2],0
same,"Plant response rating, Wheat",wheat; [3],0
same,Wheat plant response rating,wheat; [4],0
same,Wheat plant response rating,wheat; [5],0
same,"Plant response rating, Wheat",wheat; [6],0
same,Wheat plant response rating,wheat; [7],0
same,"Plant response rating, Wheat",wheat; [8],0
same,Rape plant response rating,rape; [1],0
same,Rape plant response rating,rape; [2],0
same,"Plant response rating, Rape",rape; [3],0
same,Rape plant response rating,rape; [4],0
same,Rape plant response rating,rape; [5],0
same,"Plant response rating, Rape",rape; [6],0
same,Rape plant response rating,rape; [7],0
same,"Plant response rating, Rape",rape; [8],0
same,Corn plant response rating,corn; [1],0
same,Corn plant response rating,corn; [2],0
same,"Plant response rating, Corn",corn; [3],0
same,Corn plant response rating,corn; [4],0
same,Corn plant response rating,corn; [5],0
same,"Plant response rating, Corn",corn; [6],0
same,Corn plant response rating,corn; [7],0
same,"Plant response rating, Corn",corn; [8],0
